Values of other authors as cited in patent US20150150814A1, “STABLE ORAL PHARMACEUTICAL COMPOSITION OF SOLIFENACIN” (RANBAXY LABORATORIES LIMITED, priority 2013, published 2015).

Settings: water at room temperature

## O=C(O[C@H]1CN2CCC1CC2)N1CCc2ccccc2[C@@H]1c1ccccc1 [Solifenacin succinate, (1S)-(3R)-1-azabicyclo [2.2.2] oct-3-yl3,4-dihydro-1-phenyl-2(1H)iso-quinolinecarboxylate]
  solubility in water: freely soluble
